Assays:
[1] = ref Kandasamy et al., 2021; cited from earlier work
MOR = conditions: ref Kandasamy et al., 2021; cited from earlier work
δ-opioid receptor (DOR) = conditions: ref Stanczyk et al., 2019; cited from earlier work
female C57Bl/6 mice = assay: Respiratory and heart rate measurements; format: in vivo, mouse
C57BL/6 mice = assay: Naloxone-precipitated opioid withdrawal paradigm; format: in vivo, mouse; conditions: morphine 10 mg/kg s.c. or oxycodone 3.5 mg/kg s.c. twice a day for 5 consecutive days
[2] = high dose 30 mg/kg s.c., compared with vehicle

COc1ccc(C2SCCN2S(=O)(=O)c2ccc(Cl)cc2)cc1Br (centres unmarked) [BMS-986122]
antinociception and side effects in vivo [1]: produces antinociception with reduced side effects | G protein activation vs β-arrestin recruitment (MOR): enhance G protein activation to a greater extent than β-arrestin recruitment

Cc1ccccc1COc1ccc(C2C3=C(CC(C)(C)CC3=O)OC3=C2C(=O)CC(C)(C)C3)cc1 [BMS-986187]
G protein activation vs β-arrestin recruitment (δ-opioid receptor (DOR)): enhance G protein activation to a greater extent than β-arrestin recruitment

CN1CC[C@]23c4c5ccc(O)c4O[C@H]2[C@@H](O)C=C[C@H]3[C@H]1C5 [morphine]
breathing rate (respiratory depression) (female C57Bl/6 mice; [2]): caused significant respiratory depression | heart rates (female C57Bl/6 mice; [2]): decrease in heart rates | dose for respiratory depression relative to dose required for analgesia (female C57Bl/6 mice; mice): three to five times | naloxone-precipitated withdrawal syndrome of the opioid (C57BL/6 mice): mild withdrawal syndrome

COc1ccc2c3c1O[C@H]1C(=O)CC[C@@]4(O)[C@@H](C2)N(C)CC[C@]314 [oxycodone]
naloxone-precipitated withdrawal syndrome of the opioid (C57BL/6 mice): mild withdrawal syndrome
